Assay results as given in patent publication US8431706B2, “1,2,3,4-tetrahydroqinoline derivative useful for the treatment of diabetes” (Eli Lilly and Company, priority 2011, dated 2013).

Experiments:
PPARγ = target: T1, PPARγ (Homo sapiens, UniProt P37231); experiment: PPARγ reporter functional assay in CV1 cells; format: cell-based; conditions: examined up to 10 μM; luciferase reporter; 24 hours
T1 sequence (P37231 1-505): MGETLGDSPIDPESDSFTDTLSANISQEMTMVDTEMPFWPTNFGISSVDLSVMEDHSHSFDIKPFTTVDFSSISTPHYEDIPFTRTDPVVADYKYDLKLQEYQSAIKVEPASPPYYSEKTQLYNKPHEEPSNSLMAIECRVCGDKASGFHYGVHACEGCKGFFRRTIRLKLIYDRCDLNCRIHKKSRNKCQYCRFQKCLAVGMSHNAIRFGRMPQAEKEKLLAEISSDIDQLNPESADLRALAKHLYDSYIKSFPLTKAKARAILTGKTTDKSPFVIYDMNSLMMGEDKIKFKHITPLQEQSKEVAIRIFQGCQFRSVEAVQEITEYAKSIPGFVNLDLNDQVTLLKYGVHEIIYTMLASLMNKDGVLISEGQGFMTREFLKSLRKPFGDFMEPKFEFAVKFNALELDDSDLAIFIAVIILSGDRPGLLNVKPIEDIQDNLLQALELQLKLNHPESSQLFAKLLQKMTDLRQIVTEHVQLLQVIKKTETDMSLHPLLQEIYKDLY
T1 sequence (P19793 1-462 partner): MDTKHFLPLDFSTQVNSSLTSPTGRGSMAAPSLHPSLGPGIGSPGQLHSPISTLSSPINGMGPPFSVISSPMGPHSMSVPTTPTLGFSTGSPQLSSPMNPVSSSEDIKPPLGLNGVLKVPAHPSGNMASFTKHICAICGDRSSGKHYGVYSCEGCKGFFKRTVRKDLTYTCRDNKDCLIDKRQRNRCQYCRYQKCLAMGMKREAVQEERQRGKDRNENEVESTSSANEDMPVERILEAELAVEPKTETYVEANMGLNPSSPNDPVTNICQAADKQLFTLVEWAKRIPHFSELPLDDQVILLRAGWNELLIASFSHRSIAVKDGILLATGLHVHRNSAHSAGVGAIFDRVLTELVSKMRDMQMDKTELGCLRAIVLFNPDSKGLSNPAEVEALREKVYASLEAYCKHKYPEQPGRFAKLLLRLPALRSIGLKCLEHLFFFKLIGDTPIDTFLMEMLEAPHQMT
From the text: Gal4 PPARα, Gal4 PPARδ, and PPARγ reporter functional assays are also used to monitor the selectivity of the exemplified compound. CV1 cells, which are derived from the renal tissue of an African green monkey, are transfected with various receptor and reporter plasmids using Fugene. For the Gal4 PPARα and PPARδ assays, a reporter plasmid containing five tandem copies of the yeast transcription protein Gal4 response element, cloned upstream of a firefly luciferase gene driven by the major late promoter of adenovirus, is transfected together with a Simian Virus 40 (SV40) driven plasmid constitutively expressing a hybrid protein containing the Gal4 DNA binding domain (DBD), and either the PPARα or PPARδ ligand binding. For the PPARγ assay, plasmids encoding PPARγ and RXRα, both driven by a cytomegalovirus (CMV) promoter are transfected together with a plasmid containing luciferase reporter cDNA driven by the TK promoter and a receptor response element (2×PPRE). Cells are transfected in T225 cm^2 cell culture flasks in DMEM media with 5% charcoal-stripped FBS. […] After 24 hours incubation with the compound, cells are lysed and luciferase activity is determined as a measure of receptor activation by luminescence. […] The maximum percent stimulation is determined versus maximum stimulation obtained with 10 μM of an appropriate PPAR agonist reference compound. […]

human GPR40 = human GPR40 (Homo sapiens, UniProt O14842); experiment: cell-based
human GPR40, sequence (O14842 whole entry): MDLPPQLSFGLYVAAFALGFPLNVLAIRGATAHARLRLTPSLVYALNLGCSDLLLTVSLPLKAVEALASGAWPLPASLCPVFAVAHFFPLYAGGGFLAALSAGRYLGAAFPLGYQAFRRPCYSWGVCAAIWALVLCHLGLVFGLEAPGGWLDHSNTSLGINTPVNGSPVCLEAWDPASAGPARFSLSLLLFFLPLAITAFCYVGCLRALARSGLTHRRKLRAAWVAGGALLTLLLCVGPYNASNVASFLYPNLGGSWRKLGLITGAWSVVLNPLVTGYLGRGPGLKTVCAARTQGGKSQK

## CC#C[C@@H](CC(=O)O)c1ccc(OCc2ccc(CN3CCCc4cccc(OC)c43)s2)cc1 [Example 1, (3S)-3-[4-[[5-[(8-Methoxy-3,4-dihydro-2H-quinolin-1-yl)methyl]-2-thienyl]methoxy]phenyl]hex-4-ynoic acid]
PPARγ
  functional activation of PPARγ: No functional activation
Human GPR40; EC50, HEK293 cells over expressing human GPR40, 0.1% fatty acid free BSA, FLIPR
  EC50: 152 nM
Human GPR40; EC50 value for the Calcium Flux Primary assay, HEK293 cells over expressing human GPR40, bound stated
  EC50: < 1000 nM
